# Laboratory results reported in patent publication US20190100549A1, “FLAVONOIDE-TYPE COMPOUNDS BEARING AN O-RHAMNOSYL RESIDUE” (Universitaet Hamburg, priority 2016, published 2019).
# “And” between values parts separate entries of the source, which are not always exact repeats. Identical values can stand only once.
# What was measured:
# [1] = system: PGE2; assay: PGE2 release in stimulated NHEK (ELISA); assay type: cell-based, human; settings: PMA 1 μg/ml, 100 μM
# Method: (§1) NHEK were pre-incubated for 24 h with the test compounds. The medium was replaced with the NHEK culture medium containing the inflammatory inducers (PMA or Poly I:C) and incubated for another 24 hours. Positive and negative controls ran in parallel. At the endpoint the culture supernatants were quantified of secreted IL-8, PGE2 and TNF-α by means of ELISA.
# [2] = system: IL-8; assay: IL-8 release in stimulated NHEK (ELISA); assay type: cell-based, human; settings: for inhibition at 100 µM: Homo sapiens, NHEK; for Cytokine [pg/mL] IL-8 Mean / IL-8 % stim. control / Cytokine [pg/mL] IL-8: 100 μM; for Cytokine [pg/mL] IL-8: single values
# Method: as §1
# [3] = system: lipid peroxides (C11-fluor) in NHEK cells; assay: Protection against UV-induced lipid peroxide in NHEK (C11-fluor probe, flow cytometry); assay type: cell-based, human; settings: 100 μM, 240 mJ/cm^2 UVB (3538 mJ/cm^2 UVA)
# Method: Pre-incubated NHEK were incubated with the test compound for 24 h. Then the specific fluorescence probe for the measurement of hydrogen peroxide (DHR) or lipid peroxides (C11-fluor) was added and incubated for 45 min. Irradiation occurred with in H2O2 determination UVB at 180 mJ/cm^2 (+UVA at 2839 mJ/cm^2) or UVB at 240 mJ/cm^2 (+UVA at 3538 mJ/cm^2) in lipid peroxide, respectively, using a SOL500 Sun Simulator lamp. After irradiation the cells were post-incubated for 30 min before flow-cytometry analysis.
# [4] = system: VEGF; assay: VEGF release in NHDF (ELISA); assay type: cell-based, human; settings: 100 μM, 72 hours
# Method: (§2) Tests were performed with normal human dermal fibroblast cultures at the 8th passage. Cells were grown in DMEM supplemented with glutamine at 2 mM, penicillin at 50 U/mL and streptomycin (50 μg/mL) and 10% of fetal calf serum (FCS) at 37° C. in a 5% CO2 atmosphere.
# (§3) Fibroblasts were cultured for 24 hours before the cells were incubated with the test compounds for further 72 hours. After the incubation the culture supernatants were collected in order to measure the released quantities of procollagen I, VEGF, and fibronectin by means of ELISA. Reference test compounds were vitamin C (procollagen I), PMA (VEGF), and TGF-β (fibronectin).
# [5] = system: fibronectin; assay: Fibronectin synthesis in NHDF (ELISA); assay type: cell-based, human; settings: 100 μM, 72 hours
# Method: as §2, §3
# [6] = system: matrix metallopeptidase 1 (MMP-1); assay: MMP-1 release in UVA-irradiated NHDF (ELISA); assay type: cell-based, human; settings: 100 μM, 15 J/cm^2 UVA
# Method: as §2
# Human fibroblasts were cultured for 24 hours before the cells were pre-incubated with the test or reference compounds (dexamethasone) for another 24 hours. The medium was replaced by the irradiation medium (EBSS, CaCl2 0.264 g/L, MgClSO4 0.2 g/L) containing the test compounds) and cells were irradiated with UVA (15 J/cm^2). The irradiation medium was replaced by culture medium including again the test compounds incubated for 48 hours. After incubation the quantity of matrix metallopeptidase 1 (MMP-1) in the culture supernatant was measured using an ELISA kit.
# [7] = system: NF-κB; assay: NF-κB activity in NIH3T3-KBF-Luc cells stimulated with TNFα (luciferase); assay type: cell-based; settings: for % Activation: TNFα alone = 100
# Method: NIH3T3-KBF-Luc cells were stably transfected with the KBF-Luc plasmid (Sancho (2003) Mol Pharmacol 63:429-438), which contains three copies of NF-κB binding site (from major histocompatibility complex promoter), fused to a minimal simian virus 40 promoter driving the luciferase gene. Cells (1×10^4 for NIH3T3-KBF-Luc) were seeded the day before the assay on 96-well plate. Then the cells were treated with the test substances for 15 min and then stimulated with 30 ng/ml of TNFα. After 6 h, the cells were washed twice with PBS and lysed in 50 μl lysis buffer containing 25 mM Tris-phosphate (pH 7.8), 8 mM MgCl2, 1 mM DTT, 1% Triton X-100, and 7% glycerol during 15 min at RT in a horizontal shaker. Luciferase activity was measured using a GloMax 96 microplate luminometer (Promega) following the instructions of the luciferase assay kit (Promega, Madison, Wis., USA). […] The experiments for each concentration of the test items were done in triplicate wells.
smiles,measurement,setting,value
"COc1ccc(C2CC(=O)c3c(cc(O)cc3O[C@@H]3O[C@@H](C)[C@H](O)[C@@H](O)[C@H]3O)O2)cc1O (stereo partly drawn) [HESR1, Hesperetin-5-O-α-L-rhamnoside]",inhibition at 100 µM,"[1]; Homo sapiens, NHEK",74%
same,Cytokine [pg/mL] PGE2 Mean,[1],507 pg/mL
same,PGE2 % stim. control,[1],32%
same,Cytokine [pg/mL] PGE2,[1]; single values,582 pg/mL and 431 pg/mL
same,inhibition at 100 µM,[2]; PMA,34%
same,inhibition at 100 µM,[2]; poly(I:C),24%
same,Cytokine [pg/mL] IL-8 Mean,[2]; PMA,2843 pg/mL
same,IL-8 % stim. control,[2]; PMA,98%
same,Cytokine [pg/mL] IL-8,[2]; PMA,3242 pg/mL and 2445 pg/mL
same,Cytokine [pg/mL] IL-8 Mean,[2]; poly(I:C),2793 pg/mL
same,IL-8 % stim. control,[2]; poly(I:C),76%
same,Cytokine [pg/mL] IL-8,[2]; poly(I:C),2617 pg/mL and 2970 pg/mL
same,C11-fluor(AU) Mean (1/GMFI),[3],6.4E−04 AU
same,lipid peroxide % Irradiated control,[3],99%
same,lipid peroxide Protection %,[3],1%
same,C11-fluor(AU) 1/GMFI,[3]; single values,6.0E−04 AU and 6.9E−04 AU
same,C11-fluor(AU) GMFI,[3]; single values,1671 AU and 1455 AU
same,Mean VEGF,[4],73 pg/mL
same,VEGF % Control,[4],101%
same,VEGF % Stimulation,[4],1%
same,VEGF,[4]; single values,70 pg/mL and 76 pg/mL
same,Fibronectin % Control,[5],96%
same,Fibronectin % Stimulation,[5],−4%
same,Fibronectin Mean,[5],5853 ng/mL
same,Fibronectin,[5]; single values,5843 ng/mL and 5864 ng/mL
same,MMP-1 % Irradiated control,[6],116%
same,MMP-1 % Protection,[6],−25%
same,Mean MMP-1,[6],82.2 ng/mL
same,MMP-1,[6]; single values,87.0 ng/mL and 77.4 ng/mL
same,RLU 1,[7]; 10 μM + 30 ng/ml TNFα,186120 RLU
same,RLU 2,[7]; 10 μM + 30 ng/ml TNFα,181040 RLU
same,RLU 3,[7]; 10 μM + 30 ng/ml TNFα,182280 RLU
same,RLU MEAN,[7]; 10 μM + 30 ng/ml TNFα,183147 RLU
same,RLU specific,[7]; 10 μM + 30 ng/ml TNFα,145883 RLU
same,% Activation,[7]; 10 μM + 30 ng/ml TNFα,178.4%
same,RLU 1,[7]; 25 μM + 30 ng/ml TNFα,218940 RLU
same,RLU 2,[7]; 25 μM + 30 ng/ml TNFα,216580 RLU
same,RLU 3,[7]; 25 μM + 30 ng/ml TNFα,213320 RLU
same,RLU MEAN,[7]; 25 μM + 30 ng/ml TNFα,216280 RLU
same,RLU specific,[7]; 25 μM + 30 ng/ml TNFα,179017 RLU
same,% Activation,[7]; 25 μM + 30 ng/ml TNFα,218.9%
